Results as given in PMC11445358 (Applied Microbiology and Biotechnology, 2024).
Residues, ends and D or L forms follow the SMILES beside them. *: point of attachment. Cbz = O=C(OCc1ccccc1)*

Biological target: T1, microbial transglutaminase (MTG) (Streptomyces mobaraensis, UniProt P81453)
T1 sequence (P81453 77-407): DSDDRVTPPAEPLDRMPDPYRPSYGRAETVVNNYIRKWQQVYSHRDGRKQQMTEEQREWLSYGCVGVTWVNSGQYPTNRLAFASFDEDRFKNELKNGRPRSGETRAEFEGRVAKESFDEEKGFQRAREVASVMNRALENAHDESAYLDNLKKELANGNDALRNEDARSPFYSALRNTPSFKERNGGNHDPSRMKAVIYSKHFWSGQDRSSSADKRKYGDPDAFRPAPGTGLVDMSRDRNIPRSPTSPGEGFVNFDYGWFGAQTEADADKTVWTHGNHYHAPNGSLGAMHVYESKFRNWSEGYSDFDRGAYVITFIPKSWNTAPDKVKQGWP
Assay: colorimetric hydroxamate assay, absorbance at […] nm
Assay type: biochemical
Conditions: 37 °C, 10 min; hydroxamate formation

NC(=O)CC[C@H](NC(=O)OCc1ccccc1)C(=O)NCC(=O)O [Z-QG, N-carbobenzoxy-L-glutaminylglycine] (Cbz-Gln-Gly-OH)
specific activity: specific MTG activity was measured with a colorimetric hydroxamate procedure using N-carbobenzoxy-L-glutaminylglycine (Z-QG)
